From patent US9221795B2, “Phosphatidylinositol 3-kinase inhibitors” (Gilead Sciences, Inc., priority 2013, dated 2015)

These compounds were tested against PI3Kδ (Homo sapiens (Human), UniProt O00329) (assay: Enzymatic activity of PI3K isoforms, TR-FRET assay (PI3Kδ)). Details: 2× Km ATP, geometric mean if more than one value.
PI3Kδ, sequence (O00329 whole entry, canonical isoform): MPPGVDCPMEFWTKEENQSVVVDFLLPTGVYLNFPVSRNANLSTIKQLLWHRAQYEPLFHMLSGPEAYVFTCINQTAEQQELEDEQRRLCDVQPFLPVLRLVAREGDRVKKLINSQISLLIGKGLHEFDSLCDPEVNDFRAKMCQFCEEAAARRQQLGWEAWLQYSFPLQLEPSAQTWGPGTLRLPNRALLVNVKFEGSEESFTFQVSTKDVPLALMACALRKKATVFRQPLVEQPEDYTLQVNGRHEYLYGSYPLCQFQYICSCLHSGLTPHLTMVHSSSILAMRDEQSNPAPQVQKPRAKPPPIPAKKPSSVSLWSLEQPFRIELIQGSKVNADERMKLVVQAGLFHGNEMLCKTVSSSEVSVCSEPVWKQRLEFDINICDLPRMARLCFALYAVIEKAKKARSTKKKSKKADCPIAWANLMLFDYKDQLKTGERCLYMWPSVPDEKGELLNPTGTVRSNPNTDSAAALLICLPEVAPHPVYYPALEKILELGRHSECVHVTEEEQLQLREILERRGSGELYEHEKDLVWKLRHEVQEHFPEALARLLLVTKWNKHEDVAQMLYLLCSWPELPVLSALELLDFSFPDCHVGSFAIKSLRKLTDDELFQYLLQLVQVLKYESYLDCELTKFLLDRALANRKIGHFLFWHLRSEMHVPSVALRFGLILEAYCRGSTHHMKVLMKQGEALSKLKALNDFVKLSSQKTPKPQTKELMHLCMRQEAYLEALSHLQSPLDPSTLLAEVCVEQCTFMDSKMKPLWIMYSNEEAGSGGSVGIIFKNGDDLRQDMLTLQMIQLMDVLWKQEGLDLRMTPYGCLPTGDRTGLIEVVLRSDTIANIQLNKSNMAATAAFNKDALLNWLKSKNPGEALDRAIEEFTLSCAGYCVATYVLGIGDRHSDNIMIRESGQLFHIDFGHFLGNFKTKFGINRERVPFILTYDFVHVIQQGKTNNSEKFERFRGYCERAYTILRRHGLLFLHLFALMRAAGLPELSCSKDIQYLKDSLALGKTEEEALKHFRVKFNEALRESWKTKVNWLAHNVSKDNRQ
PI3Kδ, sequence (P27986 whole entry partner, canonical isoform): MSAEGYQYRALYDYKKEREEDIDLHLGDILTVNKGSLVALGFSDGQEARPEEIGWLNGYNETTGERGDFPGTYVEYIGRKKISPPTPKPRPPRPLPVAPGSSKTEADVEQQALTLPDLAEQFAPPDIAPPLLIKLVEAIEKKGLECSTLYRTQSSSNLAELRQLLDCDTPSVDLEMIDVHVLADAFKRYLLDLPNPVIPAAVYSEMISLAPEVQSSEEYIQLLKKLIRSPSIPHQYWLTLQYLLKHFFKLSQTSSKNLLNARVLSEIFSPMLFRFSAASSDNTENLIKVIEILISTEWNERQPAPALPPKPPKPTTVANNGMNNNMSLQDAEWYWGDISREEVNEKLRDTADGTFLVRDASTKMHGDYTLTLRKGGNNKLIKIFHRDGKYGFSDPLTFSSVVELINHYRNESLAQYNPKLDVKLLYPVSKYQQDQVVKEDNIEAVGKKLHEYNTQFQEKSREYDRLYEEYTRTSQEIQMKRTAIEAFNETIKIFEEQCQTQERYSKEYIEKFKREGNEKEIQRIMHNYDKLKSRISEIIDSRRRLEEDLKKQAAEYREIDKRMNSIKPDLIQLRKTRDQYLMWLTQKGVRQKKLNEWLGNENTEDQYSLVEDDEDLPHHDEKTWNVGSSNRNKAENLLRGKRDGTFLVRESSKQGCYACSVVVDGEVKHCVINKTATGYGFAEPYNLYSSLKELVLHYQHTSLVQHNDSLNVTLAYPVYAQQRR
Format: biochemical
Procedure: Enzymatic activity of the class I PI3K isoforms in the presence of the compounds of Table 1 and Compounds X, Y and Z was measured using a time-resolved fluorescence resonance energy transfer (TR-FRET) assay. The TR-FRET assay was used to monitor formation of the product 3,4,5-inositol triphosphate molecule (PIP3) as it competed with fluorescently labeled PIP3 for binding to the GRP-1 pleckstrin homology domain protein. An increase in […] product results in a decrease in TR-FRET signal as the labeled fluorophore is displaced from the GRP-1 protein binding site.
Class I PI3K isoforms were expressed and purified as heterodimeric recombinant proteins. All assay reagents and buffers for the TR-FRET assay were purchased from Millipore. PI3K isoforms were assayed under initial rate conditions in the presence of 25 mM Hepes (pH 7.4), and 2× Km ATP (75-500 μM), 2 μM PIP2, 5% glycerol, 5 mM MgCl2, 50 mM NaCl, 0.05% (v/v) Chaps, 1 mM dithiothreitol, 1% (v/v) DMSO at the following concentrations for each isoforms: PI3Kα, PI3Kβ, and PI3Kδ between 25 and 50 pM, and PI3Kγ at 2 nM. After an assay reaction time of 30 minutes at 25° C., reactions were terminated with a final concentration of 10 mM EDTA, 10 nM labeled-PIP3, and 35 nM Europium labeled GRP-1 detector protein before reading TR-FRET on an Envision plate reader (Ex: 340 nm; Em: 615/665 nm; […] delay and 500 μs read window).
Data were normalized based on positive ([…] wortmanin) and negative (DMSO) controls. α, β, δ, and γ IC50 values were calculated from the fit of the dose-response curves to a four-parameter equation. All IC50 values represent geometric mean values if more than one value was obtained. IC50 values were reported in units of nM.
Work on Cc1cncc(-n2c([C@H](C)Nc3nc(N)nc(N)c3C#N)nc3cccc(Cl)c3c2=O)c1C (atropisomer, axis not shown) [Compound 77, (S)-2,4-diamino-6-((1-(5-chloro-3-(4,5-dimethylpyridin-3-yl)-4-oxo-3,4-dihydroquinazolin-2-yl)ethyl)amino)pyrimidine-5-carbonitrile] yielded an IC50 of 0.075 µM.
Work on C[C@H](Nc1nc(N)nc(N)c1C(N)=O)c1nc2cccc(Cl)c2c(=O)n1-c1cccnc1 [Compound 50, (S)-2,4-Diamino-6-((1-(5-chloro-4-oxo-3-(pyridin-3-yl)-3,4-dihydroquinazolin-2-yl)ethyl)amino)pyrimidine-5-carboxamide] yielded an IC50 of 0.002 µM.
Work on C[C@H](Nc1nc(N)nc(N)c1C#N)c1nc2c(F)ccc(C#N)c2c(=O)n1-c1cncc(F)c1 [Compound 62, (S)-2-(1-((2,6-diamino-5-cyanopyrimidin-4-yl)amino)ethyl)-8-fluoro-3-(5-fluoropyridin-3-yl)-4-oxo-3,4-dihydroquinazoline-5-carbonitrile] yielded an IC50 of 0.042 µM.
For N#Cc1c(N)nc(N)nc1N[C@@H](c1nc2c(F)ccc(Cl)c2c(=O)n1-c1cccnc1)C1CC1 [Compound 112, (R)-2,4-Diamino-6-(((5-chloro-8-fluoro-4-oxo-3-(pyridin-3-yl)-3,4-dihydroquinazolin-2-yl)(cyclopropyl)methyl)amino)pyrimidine-5-carbonitrile], the IC50 was 0.007 µM.
Work on N#Cc1ccc(F)c2nc([C@@H](Nc3nc(N)nc(N)c3Cl)C3CC3)n(-c3cccnc3)c(=O)c12 [Compound 59, (S)-2-(cyclopropyl((2,6-diamino-5-chloropyrimidin-4-yl)amino)methyl)-8-fluoro-4-oxo-3-(pyridin-3-yl)-3,4-dihydroquinazoline-5-carbonitrile] yielded an IC50 of 0.38 µM.
For Cc1c(F)cncc1-n1c([C@H](C)Nc2nc(N)nc(N)c2C#N)nc2ccc(F)cc2c1=O (atropisomer, axis not shown) [Compound 76, (S)-2,4-diamino-6-((1-(6-fluoro-3-(5-fluoro-4-methylpyridin-3-yl)-4-oxo-3,4-dihydroquinazolin-2-yl)ethyl)amino)pyrimidine-5-carbonitrile], the IC50 was 0.014 µM.
Work on Cc1c(F)cncc1-n1c([C@@H](C)Nc2nc(N)nc(N)c2C#N)nc2cccc(Cl)c2c1=O (atropisomer, axis not shown) [Compound 115, (R)-2,4-diamino-6-((1-(5-chloro-3-(5-fluoro-4-methylpyridin-3-yl)-4-oxo-3,4-dihydroquinazolin-2-yl)ethyl)amino)pyrimidine-5-carbonitrile] yielded an IC50 of 0.004 µM.
Compound CC[C@H](Nc1nc(N)nc(N)c1C#N)c1nc2c(F)ccc(Br)c2c(=O)n1-c1cccnc1 [Compound 61, (S)-2,4-diamino-6-((1-(5-bromo-8-fluoro-4-oxo-3-(pyridin-3-yl)-3,4-dihydroquinazolin-2-yl)propyl)amino)pyrimidine-5-carbonitrile] has an IC50 of 0.001 µM.
Work on C[C@@H](Nc1nc(N)nc(N)c1C#N)c1nc2c(F)ccc(Cl)c2c(=O)n1-c1cncc(F)c1 [Compound 113, (R)-2,4-Diamino-6-((1-(5-chloro-8-fluoro-3-(5-fluoropyridin-3-yl)-4-oxo-3,4-dihydroquinazolin-2-yl)ethyl)amino)pyrimidine-5-carbonitrile] yielded an IC50 of 0.62 µM.
For Cc1cncc(-n2c([C@H](C)Nc3nc(N)nc(N)c3C#N)nc3cccc(Cl)c3c2=O)c1C (atropisomer, axis not shown) [Compound 78, (S)-2,4-diamino-6-((1-(5-chloro-3-(4,5-dimethylpyridin-3-yl)-4-oxo-3,4-dihydroquinazolin-2-yl)ethyl)amino)pyrimidine-5-carbonitrile], the IC50 was 0.0008 µM.
In the case of Cc1c(F)cncc1-n1c([C@@H](Nc2nc(N)nc(N)c2C#N)C2CC2)nc2cccc(Cl)c2c1=O (atropisomer, axis not shown) [Compound 70, (S)-2,4-diamino-6-(((5-chloro-3-(5-fluoro-4-methylpyridin-3-yl)-4-oxo-3,4-dihydroquinazolin-2-yl)(cyclopropyl)methyl)amino)pyrimidine-5-carbonitrile], the IC50 is reported as 0.003 µM.
C[C@@H](Nc1nc(N)nc(N)c1C#N)c1nc2c(F)ccc(Cl)c2c(=O)n1-c1cccnc1 [Compound 110, (R)-2,4-Diamino-6-((1-(5-chloro-8-fluoro-4-oxo-3-(pyridin-3-yl)-3,4-dihydroquinazolin-2-yl)ethyl)amino)pyrimidine-5-carbonitrile] gave an IC50 of 0.061 µM.
Compound C[C@H](Nc1nc(N)nc(N)c1Cl)c1nc2cccc(F)c2c(=O)n1-c1cccnc1 [Compound 52, (S)-2-(1-((2,6-Diamino-5-chloropyrimidin-4-yl)amino)ethyl)-5-fluoro-3-(pyridin-3-yl)quinazolin-4(3H)-one] has an IC50 of 0.063 µM.
With CC[C@@H](Nc1nc(N)nc(N)c1C#N)c1nc2c(F)ccc(Cl)c2c(=O)n1-c1cccnc1 [Compound 111, (R)-2,4-Diamino-6-((1-(5-chloro-8-fluoro-4-oxo-3-(pyridin-3-yl)-3,4-dihydroquinazolin-2-yl)propyl)amino)pyrimidine-5-carbonitrile] the IC50 was 0.009 µM.
Compound C[C@H](Nc1nc(N)nc(N)c1Cl)c1nc2cccc(S(C)(=O)=O)c2c(=O)n1-c1cccnc1 [Compound 49, (S)-2-(1-((2,6-diamino-5-chloropyrimidin-4-yl)amino)ethyl)-5-(methylsulfonyl)-3-(pyridin-3-yl)quinazolin-4(3H)-one] has an IC50 of 0.067 µM.
CC(C)C[C@H](Nc1nc(N)nc(N)c1C#N)c1nc2cccc(Cl)c2c(=O)n1-c1cccnc1 [Compound 58, (S)-2,4-Diamino-6-((1-(5-chloro-4-oxo-3-(pyridin-3-yl)-3,4-dihydroquinazolin-2-yl)-3-methylbutyl)amino)pyrimidine-5-carbonitrile] was tested, and the IC50 was 0.014 µM.
Cc1c(F)cncc1-n1c([C@H](C)Nc2nc(N)nc(N)c2C#N)nc2c(F)ccc(Cl)c2c1=O (atropisomer, axis not shown) [Compound 74, (S)-2,4-diamino-6-((1-(5-chloro-8-fluoro-3-(5-fluoro-4-methylpyridin-3-yl)-4-oxo-3,4-dihydroquinazolin-2-yl)ethyl)amino)pyrimidine-5-carbonitrile] gave an IC50 of 0.001 µM.
For Cc1c(F)cncc1-n1c([C@@H](C)Nc2nc(N)nc(N)c2C#N)nc2cccc(Cl)c2c1=O (atropisomer, axis not shown) [Compound 114, (R)-2,4-diamino-6-((1-(5-chloro-3-(5-fluoro-4-methylpyridin-3-yl)-4-oxo-3,4-dihydroquinazolin-2-yl)ethyl)amino)pyrimidine-5-carbonitrile], the IC50 was 0.22 µM.
Compound Cc1ncc(F)cc1-n1c([C@H](C)Nc2nc(N)nc(N)c2C#N)nc2cccc(Cl)c2c1=O (atropisomer, axis not shown) [Compound 44, (S)-2,4-diamino-6-(1-(5-chloro-3-(5-fluoro-2-methylpyridin-3-yl)-4-oxo-3,4-dihydroquinazolin-2-yl)ethylamino)pyrimidine-5-carbonitrile] has an IC50 of 0.034 µM.
Compound Cc1c(F)cncc1-n1c([C@@H](Nc2nc(N)nc(N)c2C#N)C2CC2)nc2c(F)ccc(Cl)c2c1=O (atropisomer, axis not shown) [Compound 65, (S)-2,4-Diamino-6-(((5-chloro-8-fluoro-3-(5-fluoro-4-methylpyridin-3-yl)-4-oxo-3,4-dihydroquinazolin-2-yl)(cyclopropyl)methyl)amino)pyrimidine-5-carbonitrile] has an IC50 of 0.042 µM.
Compound CC[C@H](Nc1nc(N)nc(N)c1C#N)c1nc2cccc(Cl)c2c(=O)n1-c1cncc(F)c1C (atropisomer, axis not shown) [Compound 72, (S)-2,4-diamino-6-((1-(5-chloro-3-(5-fluoro-4-methylpyridin-3-yl)-4-oxo-3,4-dihydroquinazolin-2-yl)propyl)amino)pyrimidine-5-carbonitrile] has an IC50 of 0.001 µM.
With C[C@H](Nc1nc(N)nc(N)c1C#N)c1nc2c(F)ccc(Br)c2c(=O)n1-c1cncc(F)c1 [Compound 60, (S)-2,4-diamino-6-((1-(5-bromo-8-fluoro-3-(5-fluoropyridin-3-yl)-4-oxo-3,4-dihydroquinazolin-2-yl)ethyl)amino)pyrimidine-5-carbonitrile] the IC50 was 0.001 µM.
For Cc1ccncc1-n1c([C@H](C)Nc2nc(N)nc(N)c2C#N)nc2cccc(C(F)(F)F)c2c1=O (atropisomer, axis not shown) [Compound 80, (S)-2,4-Diamino-6-((1-(3-(4-methylpyridin-3-yl)-4-oxo-5-(trifluoromethyl)-3,4-dihydroquinazolin-2-yl)ethyl)amino)pyrimidine-5-carbonitrile], the IC50 was 0.027 µM.
Work on Cc1c(F)cncc1-n1c([C@H](C)Nc2nc(N)nc(N)c2C#N)nc2cccc(F)c2c1=O (atropisomer, axis not shown) [Compound 67, (S)-2,4-diamino-6-((1-(5-fluoro-3-(5-fluoro-4-methylpyridin-3-yl)-4-oxo-3,4-dihydroquinazolin-2-yl)ethyl)amino)pyrimidine-5-carbonitrile] yielded an IC50 of 0.12 µM.
